Converted amounts (≈) assume the structure as drawn. “And” between values parts separate entries of the source, which are not always exact repeats. Equal entries are not always repeated. Where two headings read alike, the source gives them in different places.
How the values were obtained:
A. fumigatus AF293 = experiment: EUCAST broth microdilution growth inhibition (OD 530 nm, 384-well); type: cell-based; details: Aspergillus fumigatus, strain AF293 (ITC-susceptible), 48 h
Method: (§1) The antifungal activities of the test compounds against A. fumigatus strains (itraconazole [ITC]-susceptible strains NCPF2010, AF294, and AF293; ITC-resistant strains AF72 and AF91) were calculated from growth curves generated by spectrophotometric analysis and compared to the activities against positive and negative controls.

A. fumigatus AF294 = experiment: as above; type: cell-based; details: Aspergillus fumigatus, strain AF294 (ITC-susceptible), 48 h
Method: as §1

A. fumigatus AF72 = experiment: as above; type: cell-based; details: Aspergillus fumigatus, strain AF72 (ITC-resistant), 48 h
Method: as §1

A. fumigatus AF91 = experiment: as above; type: cell-based; details: Aspergillus fumigatus, strain AF91 (ITC-resistant), 48 h
Method: as §1

A. fumigatus NCPF2010 = experiment: as above; type: cell-based; details: Aspergillus fumigatus, strain NCPF2010 (ITC-susceptible), 48 h, range tested 0.002 to 1 μg/ml
Method: as §1

[1] = test system: A. fumigatus hyphae (NCPF2010); experiment: Persistence of action on A. fumigatus hyphae (resazurin microtiter assay); type: cell-based, Aspergillus fumigatus; details: for IC50: Aspergillus fumigatus, NCPF2010
Method: The duration of action of test agents within the hyphae of A. fumigatus has been determined using a resazurin-based microtiter assay ([28]).
The persistence of action of the test agents against A. fumigatus hyphae (NCPF2010) was determined as previously reported ([28]). […] The plates were incubated for exactly 20 min at 35°C in 5% CO2. After the incubation time had elapsed, all wells on the designated washout plate were aspirated and growth medium (100 μl/well) was added across the plate. […] Resazurin (0.04% diluted in growth medium) was added to all wells of both the nonwashout and washout plates (5 μl/well) to give a final concentration of 0.002% resazurin. The plates were incubated at 35°C in 5% CO2 for 16 h. Subsequently, the fluorescence in each well was measured at an excitation λ of 545 nm and an emission λ of 600 nm using a multiscanner (Clariostar; BMG, Buckinghamshire, UK). […] This study was conducted in quadruplicate in three independent experiments.

[2] = test system: BEAS2B cells infected with A. fumigatus; experiment: Persistence of action in bronchial epithelial cells (galactomannan in supernatant); type: cell-based, Aspergillus fumigatus; details: Aspergillus fumigatus, BEAS-2B, GM readout
Method: In a second system, the persistence of the action of the same three agents on A. fumigatus-infected bronchial epithelial cells was quantified using galactomannan (GM) production in the culture supernatant as an index of fungal growth. BEAS2B cells were infected with A. fumigatus, and the effects of a 24-h washout period (medium change) prior to infection were examined.
The persistence of action of the test agents was evaluated in immortalized bronchial epithelial cells (BEAS2B cells) as previously reported ([28]). […] The plate was incubated for exactly 1 h at 37°C in 5% CO2. After the incubation time had elapsed, all wells on the washout plate were aspirated and growth medium (100 μl/well) was added across the plate. […] The plate was incubated for exactly 1 h at 37°C in 5% CO2, after which A. fumigatus conidia were added across both plates at a final concentration of 1 × 10^3/well. […] This study was conducted in triplicate in three independent experiments.

[3] = test system: Aspergillus flavus (AFL8, NRRC3357); experiment: EUCAST MIC; type: cell-based; details: EUCAST, 2 strains, mean MIC, read-out: MIC
[4] = test system: Aspergillus terreus (AT49, AT7130); experiment: EUCAST MIC; type: cell-based; details: EUCAST, 2 strains, mean MIC, read-out: MIC
[5] = test system: Trichophyton rubrum (ATCC 10218); experiment: CLSI MIC; type: cell-based; details: ATCC10218, 1 strain
[6] = test system: Aureobasidium pullulans (ATCC 348); experiment: CLSI MIC; type: cell-based; details: ATCC348, 1 strain
[7] = test system: Cladosporium argillaceum (ATCC 38013); experiment: CLSI MIC; type: cell-based; details: Rhizocladosporium argillaceum, ATCC38013, 1 strain
[8] = test system: Candida albicans (20240.047, ATCC 10231); experiment: CLSI MIC; type: cell-based; details: ATCC10231, CLSI, 2 strains, mean MIC, MIC = 50% inhibition of fungal growth, read-out: MIC
[9] = test system: Chaetomium globosum (ATCC 44699); experiment: CLSI MIC; type: cell-based; details: ATCC44699, 1 strain
[10] = test system: Gibberella zeae(Fusarium graminearum) (ATCC 16106); experiment: microbe, parasite or virus in culture; type: cell-based; details: ATCC16106
[11] = test system: Cryptococcus neoformans (ATCC 24067); experiment: CLSI MIC; type: cell-based; details: ATCC24067, CLSI, 1 strain, read-out: MIC
[12] = test system: Lichtheimia corymbifera (ATCC 7909); experiment: CLSI MIC; type: cell-based; details: ATCC7909, 1 strain
[13] = test system: Mucor circinelloides (ATCC 8542); experiment: CLSI MIC; type: cell-based; details: ATCC8542, 1 strain
[14] = test system: Rhizomucor pusillus (ATCC 16458); experiment: CLSI MIC; type: cell-based; details: ATCC16458, 1 strain
[15] = test system: Rhizopus oryzae(ATCC 11145); experiment: CLSI MIC; type: cell-based; details: Rhizopus arrhizus, ATCC11145, 1 strain
[16] = test system: ergosterol production in A. fumigatus (NCPF2010); experiment: A. fumigatus cell-based ergosterol assay; details: for IC50: Aspergillus fumigatus
Method: CYP51 enzyme-inhibitory activity was also measured in a cell-based assay, as described previously ([28]). In this plate-based ergosterol quantification experiment, oxidation of ergosterol by cholesterol oxidase was determined by observing the conversion of the weakly fluorescent resazurin to the highly fluorescent resorufin and was normalized using crystal violet staining (indicating cell number).
After incubation for 24 h at 35°C, the medium was removed from all wells and replaced with reaction buffer (catalog number A12216; Amplex red cholesterol assay kit; Thermo Fisher) and Amplex red solution. The plates were incubated for 30 min at 37°C with protection from light, after which the fluorescence was quantified using a spectrophotometer. The medium was removed from all wells and replaced with crystal violet solution (1%, vol/vol), and the plates were incubated at room temperature on a shaker for 30 min. The plates were washed three times with phosphate-buffered saline (PBS), and sodium dodecyl sulfate solution (0.1%, vol/vol) was added across the plate to lyse the cells. After incubation at room temperature for 1 h, the absorbance (OD) at 590 nm was measured using a spectrophotometer.

A. fumigatus (NCPF2010) [17] = experiment: Fungicidal activity by subculture on agar (CFU-MFC); details: for MFC: Aspergillus fumigatus, NCPF2010, 48 h, read-out: CFU-MFC; for CFU-MFC/MIC ratio: NCPF2010
Method: (§2) After the MIC for each compound was recorded, fungicidal activity was determined as previously described ([35]). Briefly, medium from each well (100 μl/well) was removed after pipetting up and down five times and subcultured onto 4% Sabouraud dextrose agar plates. The plates were incubated (35°C with ambient air) for 48 h, and the numbers of CFU were counted for each compound concentration. The minimum fungicidal concentration (MFC) was determined as the lowest compound concentration yielding 3 colonies or less.

A. fumigatus (NCPF2010) [18] = experiment: Fungicidal activity by XTT colorimetric method (XTT-MFC); details: for MFC: NCPF2010, read-out: XTT-MFC; for XTT-MFC/MIC ratio / XTT-MFC: NCPF2010; for XTT-MFC: cutoff 99% inhibition
Method: In addition, the fungicidal effect of each compound was determined using 2,3-bis-(2-methoxy-4-nitro-5-sulfophenyl)-2H-tetrazolium-5-carboxanilide salt (XTT)-based quantitative colorimetric analysis (XTT-MFC).
After the removal of medium for culture-based testing of the number of CFU, the contents of all wells were carefully aspirated and warm PBS (200 μl/well) was added. After gentle agitation, the contents of all wells were aspirated and fresh medium was added (200 μl/well). The plates were incubated (35°C with ambient air) for 24 h. […] The plates were incubated (35°C with ambient air) for 2 h, after which the plates were agitated gently for 2 min. The optical density (OD) of each well at 450 nm and 620 nm was measured using a multiscanner (Clariostar; BMG, Buckinghamshire, UK).

A. fumigatus (NCPF2010) [19] = experiment: Broth microdilution MIC (96-well) preceding MFC determination; details: Aspergillus fumigatus
Method: as §2

[20] = 20 min contact, washout, 16 h incubation, read-out: Hyphae IC50 Washout
[21] = continuous contact 16 h, read-out: Hyphae IC50 No washout
[22] = 1 h contact before infection, no washout, read-out: BEAS2B cells IC50 No washout
[23] = 1 h contact then 24-h washout before infection, read-out: BEAS2B cells IC50 Washout
[24] = NCPF2010, 24 h, read-out: IC50, inhibition of ergosterol production
[25] = Aspergillus fumigatus, NCPF2010, read-out: maximum inhibition of fungicidal activity

CC[C@@H]([C@H](C)O)n1ncn(-c2ccc(N3CCN(c4ccc(OC[C@@H]5CO[C@@](Cn6cncn6)(c6ccc(F)cc6F)C5)cc4)CC3)cc2)c1=O [Posaconazole, posaconazole]
IC50 (A. fumigatus AF293): 10 ng/mL (≈ 0.0143 µM)
IC90 (A. fumigatus AF293): 0.028 µg/mL (≈ 0.04 µM)
IC50 (A. fumigatus AF294): 5.6 ng/mL (≈ 0.00799 µM)
IC90 (A. fumigatus AF294): 11 ng/mL (≈ 0.0157 µM)
IC50 (A. fumigatus AF72): 0.042 µg/mL (≈ 0.0599 µM)
IC90 (A. fumigatus AF72): 0.3 µg/mL (≈ 0.428 µM)
IC50 (A. fumigatus AF91): 0.038 µg/mL (≈ 0.0542 µM)
IC90 (A. fumigatus AF91): 0.049 µg/mL (≈ 0.0699 µM)
IC50 (A. fumigatus NCPF2010): 7 ng/mL (≈ 0.00999 µM)
IC90 (A. fumigatus NCPF2010): 8.4 ng/mL (≈ 0.012 µM)
IC50 [1, 20]: 2.2 ng/mL (≈ 0.00314 µM)
IC50 [1, 21]: 0.45 ng/mL (≈ 0.000642 µM)
IC50 [2, 22]: 0.0031 µg/mL (≈ 0.00442 µM)
IC50 [2, 23]: 0.046 µg/mL (≈ 0.0656 µM)
MIC [3]: 0.16 µg/mL (≈ 0.228 µM)
MIC [4]: 0.093 µg/mL (≈ 0.133 µM)
MIC [5]: 0.031 µg/mL (≈ 0.0442 µM)
MIC [6]: 1 µg/mL (≈ 1.43 µM)
MIC [7]: 0.25 µg/mL (≈ 0.357 µM)
MIC [8]: 0.081 µg/mL (≈ 0.116 µM)
MIC [9]: 0.25 µg/mL (≈ 0.357 µM)
MIC [10]: > 8 µg/mL
MIC [11]: 0.016 µg/mL (≈ 0.0228 µM)
MIC [12]: > 8 µg/mL
MIC [13]: > 8 µg/mL
MIC [14]: > 8 µg/mL
MIC [15]: > 8 µg/mL
IC50 [16, 24]: 0.012 µg/mL and 17 nM
MFC (A. fumigatus (NCPF2010) [17]): 4 µg/mL (≈ 5.71 µM)
CFU-MFC/MIC ratio (A. fumigatus (NCPF2010) [17]): 32
MFC (A. fumigatus (NCPF2010) [18]; Aspergillus fumigatus): 0.42 µg/mL (≈ 0.599 µM)
inhibition at 2 µg/mL (A. fumigatus (NCPF2010) [18]; [25]): 100%
XTT-MFC/MIC ratio (A. fumigatus (NCPF2010) [18]): 3.4
XTT-MFC (A. fumigatus (NCPF2010) [18]): 0.42 ± 0.020 µg/mL
MIC (A. fumigatus (NCPF2010) [19]): 0.125 µg/mL (≈ 0.178 µM)

Cc1cc(N2CCN(c3ccc(C(=O)N[C@H]4CCCC[C@@H]4O)cc3)CC2)ccc1OC[C@@H]1CO[C@@](Cn2cncn2)(c2ccc(F)cc2F)C1 [PC1244, 4-(4-(4-(((3R,5R)-5-((1H-1,2,4-triazol-1-yl)methyl)-5-(2,4-difluorophenyl)tetrahydrofuran-3-yl)methoxy)-3-methylphenyl)piperazin-1-yl)-N-((1S,2S)-2-hydroxycyclohexyl)benzamide]
IC50 (A. fumigatus AF293): 2.6 ng/mL (≈ 0.00379 µM)
IC90 (A. fumigatus AF293): 0.012 µg/mL (≈ 0.0175 µM)
IC50 (A. fumigatus AF294): 2.1 ng/mL (≈ 0.00306 µM)
IC90 (A. fumigatus AF294): 4.1 ng/mL (≈ 0.00597 µM)
IC50 (A. fumigatus AF72): 0.0024 µg/mL (≈ 0.00349 µM)
IC90 (A. fumigatus AF72): 0.026 µg/mL (≈ 0.0379 µM)
IC50 (A. fumigatus AF91): 0.0037 µg/mL (≈ 0.00539 µM)
IC90 (A. fumigatus AF91): 0.024 µg/mL (≈ 0.0349 µM)
IC50 (A. fumigatus NCPF2010): 1.7 ng/mL (≈ 0.00248 µM)
IC90 (A. fumigatus NCPF2010): 2.2 ng/mL (≈ 0.0032 µM)
Hyphae Fold change (washout vs no washout) [1]: 2.4 fold and 2.41 fold
IC50 [1, 20]: 0.25 ng/mL (≈ 0.000364 µM)
IC50 [1, 21]: 0.11 ng/mL (≈ 0.00016 µM)
fold more potent than POS at inhibiting hyphal growth ([1]; no washout IC50): 4.1 fold
fold more potent than VRC at inhibiting hyphal growth ([1]; no washout IC50): 100 fold
IC50 [2, 22]: 0.0034 µg/mL (≈ 0.00495 µM)
IC50 [2, 23]: 0.018 µg/mL (≈ 0.0262 µM)
MIC [3]: 0.38 µg/mL (≈ 0.553 µM)
MIC [4]: 0.38 µg/mL (≈ 0.553 µM)
MIC [5]: 0.031 µg/mL (≈ 0.0451 µM)
MIC [6]: 1 µg/mL (≈ 1.46 µM)
MIC [7]: 0.25 µg/mL (≈ 0.364 µM)
MIC [8]: < 0.0078 µg/mL
MIC [9]: 0.063 µg/mL (≈ 0.0917 µM)
MIC [10]: 1 µg/mL (≈ 1.46 µM)
MIC [11]: 0.016 µg/mL (≈ 0.0233 µM)
MIC [12]: 1 µg/mL (≈ 1.46 µM)
MIC [13]: 2 µg/mL (≈ 2.91 µM)
MIC [14]: 2 µg/mL (≈ 2.91 µM)
MIC [15]: 0.25 µg/mL (≈ 0.364 µM)
fold more potent than POS at inhibiting ergosterol production [16]: 2.2 fold
fold more potent than VRC at inhibiting ergosterol production [16]: 12 fold
IC50 [16, 24]: 5.5 ng/mL
IC50 ([16]; NCPF2010, read-out: 50% inhibitory concentration, ergosterol synthesis): 8 nM
fold stronger than POS (CFU-MFC) (A. fumigatus (NCPF2010) [17]): 2 fold
fold stronger than VRC (CFU-MFC) (A. fumigatus (NCPF2010) [17]): 8 fold
MFC (A. fumigatus (NCPF2010) [17]): 2 µg/mL (≈ 2.91 µM)
CFU-MFC/MIC ratio (A. fumigatus (NCPF2010) [17]): 32
fold more potent than POS (XTT-MFC) (A. fumigatus (NCPF2010) [18]): 3 fold
fold more potent than VRC (XTT-MFC) (A. fumigatus (NCPF2010) [18]): > 229 fold
MFC (A. fumigatus (NCPF2010) [18]; Aspergillus fumigatus): 0.14 µg/mL (≈ 0.204 µM)
inhibition at 1 µg/mL (A. fumigatus (NCPF2010) [18]; [25]): 99.9%
XTT-MFC/MIC ratio (A. fumigatus (NCPF2010) [18]): 2.2
XTT-MFC (A. fumigatus (NCPF2010) [18]): 0.14 ± 0.0058 µg/mL
MIC (A. fumigatus (NCPF2010) [19]): 0.063 µg/mL (≈ 0.0917 µM)

— publication PMC5923123, “In Vitro and In Vivo Efficacy of a Novel and Long-Acting Fungicidal Azole, PC1244, on Aspergillus fumigatus Infection” (Antimicrobial Agents and Chemotherapy, 2018)
